According to US10322187B2, “Reduced toxicity molecular conjugates of anti-fungal agents” (Lehigh University, priority 2015, dated 2019):
Values after ≈ are worked out from the molar mass of the structure shown. “Also recorded” adds a separate entry of the source. Like-named read-outs stand apart in the source and are kept apart here.

Legend:
C. albicans = assay: Antifungal activities, MIC/MFC; assay type: cell-based; details: C. albicans
Protocol: (§1) A similar sequence of reactions was carried out using lysine dicholamide in place of cholic acid afforded VJ-1147 of Table 2. To assess the antifungal properties of the diwalled VJ-1138 (Table 2) and 2a of Table 3, their in vitro activities were examined against four clinically relevant microbes, i.e., C. albicans, C. glabrata, C. neoformans, and C. gatti (Table 4).
(§2) Minimum inhibitory concentrations (MIC) and minimum fungicidal concentrations (MFC) are the lowest concentrations that are required for completely inhibiting growth, and killing at least 99% of the fungi, respectively.
(§3) The above molecules were tested for antifungal activity. Minimum inhibitory concentrations (MIC) and minimum fungicidal concentrations (MFC) are the lowest concentrations that are required for completely inhibiting growth, and killing at least 99% of the fungi, respectively. As is apparent from Table 4 below, there is a general trend; i.e., increased antifungal activity is observed as the length of the hydrocarbon chain that separates the facial amphiphile from the Amphotericin B moiety is decreased.

C. gatti = assay: Antifungal activities, MIC/MFC; assay type: cell-based; details: C. gatti
Protocol: as §1, §2, §3

C. glabrata = assay: Antifungal activities, MIC/MFC; assay type: cell-based; details: C. glabrata
Protocol: as §1, §2, §3

C. neoformans = assay: Antifungal activities, MIC/MFC; assay type: cell-based; details: C. neoformans
Protocol: as §1, §2, §3

[1] = system: C. albicans, C. glabrata, C. neoformans, and C. gatti; assay: In vitro antifungal activity, general statements on the four microbes; assay type: cell-based; details: on a molar basis
Protocol: as §1, §2

[2] = Critical aggregation concentration (CAC) by UV absorptivity; assay type: physicochemical; details: PBS, 37° C., absorptivity at 409 nm
Source text: If one lets: (i) T, m, and P represent the total, the monomeric, and the aggregate concentrations of this macrolide, respectively; (ii) ε represent the apparent molar absorptivity; and (iii) εm and εp represent the molar absorptivity for the monomeric and aggregate components, respectively, then it can be shown that ε=εp+(εm−εp)m/T. See Yamashita K, Janout V, Bernard E M, Armstrong D, and Regen, S L. Micelle/monomer control over the membrane disrupting properties of an amphiphilic antibiotic. J. Am. Chem. Soc. 117 (1995) 6249-6253. At concentrations that are in excess of its CAC, m is constant, and ε is expected to be inversely proportional to T. Thus, by measuring the apparent molar absorptivity as a function of the reciprocal of the concentration of VJ-1138, its CAC value is estimated to be 0.9 μM (from the intercept of two straight lines).
Determination of Critical Aggregation Concentration (CAC) of AmphB and molecular conjugates. Solutions of AmphB and molecular conjugates in DMSO (Sigma-Aldrich) were prepared having a concentration of 1.00 mM. […] The UV spectrum was then recorded in the range of 250-550 nm. The absorbance at 408 nm was plotted as a function of the reciprocal value of the concentration of AmB and the critical aggregation concentration of the molecular conjugates was then determined, graphically.

sheep red blood cells = assay: Hemolysis measurements, release of hemoglobin; assay type: cell-based
Protocol: Sheep Red Blood Cells, 10%, in saline (Innovative Research, Novi, Mich.), were diluted in saline (pH 7.4) to a concentration of 4%, which corresponds to 4×10^7 cells/mL. All measurements were carried out in duplicate. Solutions of Amphotericin B (Sigma-Aldrich) were prepared by adding 10 μL of a DMSO solution containing a given concentration of the antibiotic (i.e., ranging from 0.2 mM to 50 mM) to 490 μL of PBS. After the resulting solution was vortex mixed for 30 seconds (s) it was incubated at 37° C. for 15 min. The resulting solution of antibiotic (500 μL) was then mixed with 500 μL of the 4% erythrocyte dispersion at 37° C. in a 1 mL plastic centrifuge vial to give a dispersion that was vortex mixed at slow rate for 5 s. After 1 h of incubation at 37° C., all samples were centrifuged (1500 g, Eppendorf centrifuge 5415C, 5000 rpm) at rt for 5 min. The supernatant (˜0.7 mL) from each plastic vial was carefully separated from sediment using a disposable glass pipette and quickly transferred to test tube. A volume of 50 μL of this supernatant was then transferred to a UV cell containing 500 μL of PBS that was maintained at 37° C. The UV spectrum was then scanned (450-650 nm) and the absorbance at 575 nm used to determine the extent of hemolysis. The extent of 0% and 100% of hemolysis was obtained from A575 values of experiments that were run in absence of AmphB (control, [A575,]o) and in presence, 100 μM AmphB ([A575]max), respectively.

HEK293T cells = assay: Inhibition of cell growth, MTT cell viability; assay type: cell-based, human; details: 1, 10, 50, and 100 μM; FIG. 4
Protocol: Human embryonic kidney HEK293 cells were cultured in Dulbecco's modified Eagle's medium (DMEM supplemented with 10% FBS, 100 U/mL penicillin, and 0.1 mg/mL SI-10 streptomycin) in a humidified atmosphere of 5% CO2 at 37° C.
HEK293T cells were seeded in 96-well plates at a density of 6,000 cells/well and incubated overnight. Before treatment, compounds aliquots were solubilized in DMSO to obtain 10 mM stock solutions. Appropriate volumes of these stock solutions were added to DMEM media so the final concentration of DMSO is equal to 1%. After removal of cell media, 50 μL of treatment solutions were added to each well and incubated at 37° C. for 2 h. After treatment, the media was removed, and 100 μL of complete medium was added to each well before returning the plate to the incubator. Cell viability was determined after 72 h using the colorimetric MTT assay. Briefly, 10 μL of a 5 mg/mL MTT stock solution was added to the treated cells and incubated for 2 h at 37° C. The resulting formazan crystals were solubilized in 200 μL of DMSO, and the absorbance was measured at 580 nm using an Infinite 200 PRO microplate reader (Tecan). Cell viability was calculated against control cells treated with the vehicle in DMEM.

Cryptococcus neoformans = assay: Cryptococcosis mouse model, brain and lung tissue burden; assay type: in vivo, mice
Protocol: Cryptococcosis mice are infected via tail vein injection of 5×10^4 C. neoformans cells. Inocula are verified by quantitative culture. Animals are identified by temporary ink marking, assigned to groups of 10 mice. Test compounds will be dosed starting on the day of infection. Initial studies will employ i.v., i.p. or oral (gavage) dosing (depending on the compound and the vehicle). Antifungal compounds are given for a period of 7 days. […] On day 8, the lung and brain are evaluated by quantitative culture per gram of tissue, by weighing organs and culturing serially diluted homogenates. These tissue burden studies permit detection of drug efficacy that may not be evident by using a survival endpoint.
The mice were then sacrificed 7 days later for quantitative culture of brain and lung, with cryptococcal cells per gram tissue being expressed as logarithmic values (log 10). Mean values for each group were compared using the t-test.

[3] = t-test, 70 mg/kg/day intraperitoneal

For `CC1OC(O[C@H]2/C=C/C=C/C=C/C=C/C=C/C=C/C=C/[C@H](C)[C@@H](O)[C@@H](C)[C@H](C)OC(=O)C[C@H](O)C[C@H](O)CC[C@@H](O)[C@H](O)C[C@H](O)C[C@]3(O)C[C@H](O)[C@@H](C(=O)NCCCCCCCC(=O)N(CCCCNC(=O)CC[C@@H](C)C4CCC5C6C(O)CC7CC(O)CCC7(C)C6CC(O)C54C)CCCNC(=O)CC[C@@H](C)C4CCC5C6C(O)CC7CC(O)CCC7(C)C6CC(O)C54C)[C@H](C2)O3)C(O)C(N)C1O` (stereo partly shown) [VJ-1138], the MIC (C. albicans; Table 2, 1st value in brackets, read-out: minimum inhibitory concentration (MIC)) was 2 µM (≈ 3.95 µg/mL), the MIC (C. albicans; first Table 4, lowest concentration completely inhibiting growth, read-out: MIC) was 1 µM (≈ 1.97 µg/mL) and the MFC (C. albicans; first Table 4, lowest concentration killing at least 99% of the fungi, read-out: MFC) was 2 µM (≈ 3.95 µg/mL). The MIC (C. gatti; Table 2, 4th value in brackets, read-out: minimum inhibitory concentration (MIC)) was 3 µM (≈ 5.92 µg/mL), the MFC (C. gatti; first Table 4, read-out: MFC) was 2 µM (≈ 3.95 µg/mL) and the MIC (C. gatti; first Table 4, read-out: MIC) was 1 µM (≈ 1.97 µg/mL). It also gave an MIC (C. glabrata; Table 2, 2nd value in brackets, read-out: minimum inhibitory concentration (MIC)) of 4 µM (≈ 7.89 µg/mL), an MFC (C. glabrata; first Table 4) of 4 µM (≈ 7.89 µg/mL) and an MIC (C. glabrata; first Table 4, read-out: MIC) of 2 µM (≈ 3.95 µg/mL). The MIC (C. neoformans; Table 2, 3rd value in brackets, read-out: minimum inhibitory concentration (MIC)) was 2 µM (≈ 3.95 µg/mL), the MFC (C. neoformans; first Table 4, read-out: MFC) was 2 µM (≈ 3.95 µg/mL) and the MIC (C. neoformans; first Table 4, read-out: MIC) was 1 µM (≈ 1.97 µg/mL). The “antifungal potency compared with AmphB” value [1] was “approaches that of the native antibiotic; also recorded: approaching that of AmphB”, the “critical aggregation concentration (CAC)” value [2] was 0.9 µM and the “EH50 relative to AmphB” value (sheep red blood cells) was “approximately 2 orders of magnitude”. The “hemolytic activity relative to AmphB” value (sheep red blood cells) was “dramatically reduced”, the “EH50, concentration required to induce 50% release of hemoglobin from erythrocytes” value (sheep red blood cells; pH 7.4) was 375 µM and the “toxicity toward HEK293t cells compared with AmphB” value (HEK293T cells) was “dramatically reduced”. The mean lung burden (Cryptococcus neoformans; CD1 male mice, intraperitoneal DMSO solution, 70 mg/kg/day, 7 days, untreated 6.34) was 5.10 log 10 cryptococcal cells per, the mean brain burden (Cryptococcus neoformans; CD1 male mice, intraperitoneal DMSO solution, 70 mg/kg/day, 7 days, untreated 8.22) was 7.66 log 10 cryptococcal cells per and the “p, brain tissue burden compared to untreated mice” value (Cryptococcus neoformans; [3]) was 0.0083. The “p, lung tissue burden compared to untreated mice” value (Cryptococcus neoformans; [3]) was under 0.0001.
